US9296703B2, “Substituted N-(3-(pyrimidin-4-yl)phenyl)acrylamide analogs as tyrosine receptor kinase BTK inhibitors” (University of Utah Research Foundation, priority 2012, dated 2016)

Target: recombinant full-length human BTK kinase (Homo sapiens (Human), UniProt Q06187)
Experiment: BTK kinase assay: ADP generation assay (ADP-Glo)
Assay type: biochemical
Conditions: 60 nM BTK, 1.6 μM ATP, 20 μM MBP substrate, 60 min at room temperature
Method: The primary assay for compound inhibitory activity was the ADP generation assay described herein. Test compounds were diluted to desired concentrations in kinase reaction buffer and briefly incubated with recombinant full-length human BTK kinase with a (His)6 tag (81.3 kDa; Invitrogen Corporation, Carlsbad, Calif.). The assay as described is based on volumes used in a standard 384 well format using solid, white-wall plates. The reaction was subsequently initiated by the addition of ATP and myelin basic protein (MBP) substrate (Millipore Corporation, Waltham, Mass.). Composition of the assay reaction mixture ([…]) was: 5% v/v DMSO, 60 nM BTK, 1.6 μM ATP, and 20 μM MBP substrate. […] Luminescence was measured on an EnVision® microplate reader (PerkinElmer). The amount of luminescence from each reaction is directly correlated with BTK kinase activity. Percent inhibition and IC50 values were calculated by comparing enzyme activity in drug-treated wells to the appropriate controls.
IC50 values are determined using GraphPad Prism 5 software. […]
Activity (IC50) was determined in the BTK assays describe herein above, i.e. either the ADP generation assay and/or the time-resolved FRET assay, and the data are shown in Table III. […]

Sequence of recombinant full-length human BTK kinase (Q06187 whole entry): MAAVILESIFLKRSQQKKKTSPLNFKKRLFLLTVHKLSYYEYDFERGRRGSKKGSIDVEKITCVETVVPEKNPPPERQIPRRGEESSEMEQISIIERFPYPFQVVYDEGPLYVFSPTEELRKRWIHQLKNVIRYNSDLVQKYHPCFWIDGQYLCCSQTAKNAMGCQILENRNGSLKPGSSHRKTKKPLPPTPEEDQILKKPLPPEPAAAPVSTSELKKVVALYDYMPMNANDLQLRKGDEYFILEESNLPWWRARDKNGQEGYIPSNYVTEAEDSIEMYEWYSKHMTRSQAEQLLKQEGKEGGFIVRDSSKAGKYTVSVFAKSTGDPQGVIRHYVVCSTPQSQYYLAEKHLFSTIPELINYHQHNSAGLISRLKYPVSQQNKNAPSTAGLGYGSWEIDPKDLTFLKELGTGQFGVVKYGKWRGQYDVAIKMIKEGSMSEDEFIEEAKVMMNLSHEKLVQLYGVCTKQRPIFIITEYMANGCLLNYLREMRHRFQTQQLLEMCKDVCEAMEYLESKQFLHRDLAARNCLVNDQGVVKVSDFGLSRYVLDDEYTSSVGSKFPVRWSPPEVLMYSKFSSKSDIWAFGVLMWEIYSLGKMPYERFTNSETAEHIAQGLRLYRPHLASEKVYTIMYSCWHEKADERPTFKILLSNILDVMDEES

SMILES	IC50 [µM]
C=CC(=O)Nc1cccc(-c2nc(Nc3ccc(N4CCOCC4)c(O)c3)ncc2Cl)c1 [Compound 1, N-(3-(5-chloro-2-((3-hydroxy-4-morpholinophenyl)amino)pyrimidin-4-yl)phenyl)acrylamide]	0.004
C=CC(=O)Nc1cccc(-c2nc(Nc3ccc(N4CCOCC4)c(OP(=O)(OC(C)C)OC(C)C)c3)ncc2Cl)c1 [Compound 2, 5-((4-(3-acrylamidophenyl)-5-chloropyrimidin-2-yl)amino)-2 - morpholinophenyl diisopropyl phosphate]	3.58
